Broadly, the EC50 is the concentration giving half of the maximal effect. For orientation: IC50 means the concentration that inhibits the measured activity by half.

Like-named read-outs stand apart in the source and are kept apart here.

One data set deals with HCoV-229E. Briefly: Antiviral CPE reduction assay, HCoV-229E in HEL299 cells. Conditions: mean ± SD of two or three independent experiments. Format: cell-based, human coronavirus 229E.
Another data set relates to HCoV-OC43. Nature of the data set: Antiviral CPE reduction assay, HCoV-OC43 in HEL299 cells. Format: cell-based, human coronavirus OC43. Conditions: mean ± SD of two or three independent experiments.
Another data set relates to HCoV-NL63. Briefly: Antiviral CPE reduction assay, HCoV-NL63 in Hep3B cells. Conditions: mean ± SD of two or three independent experiments. Type of data set: cell-based, human coronavirus NL63.
Data set [1] deals with influenza A/H1N1 (A/Ned/378/05). Briefly: Antiviral CPE reduction assay, influenza A/H1N1 in MDCK cells. Format: cell-based, influenza A virus. Conditions: read-out: Antiviral Activity (EC50) Influenza H1N1.
Data set [2] deals with influenza A/H3N2 (A/HK/7/87). Briefly: Antiviral CPE reduction assay, influenza A/H3N2 in MDCK cells. Type of data set: cell-based, influenza A virus. Conditions: read-out: Antiviral Activity (EC50) Influenza H3N2.
Data set [3] relates to influenza B (B/Ned/537/05). Nature of the data set: Antiviral CPE reduction assay, influenza B in MDCK cells. Conditions: read-out: Antiviral Activity (EC50) Influenza B. Format: cell-based, influenza B virus.
The subject of data set [4] is respiratory syncytial virus A (RSV A Long). Briefly: Antiviral CPE reduction assay, RSV A Long in Hep2 cells. Format: cell-based.
Data set [5] has as its system herpes simplex virus-1 (HSV-1 KOS). Nature of the data set: Antiviral CPE reduction assay, HSV-1 KOS in HEL299 cells. Conditions: mean ± SD, no unit printed on the supplement page (Table 2 of the same screen is in µM). Format: cell-based.
In data set [6] the test system is yellow fever virus (YFV 17D). Briefly: microbe, parasite or virus in culture. Format: cell-based.
For the next data set, the system named is Zika virus (ZikV mr766). Nature of the data set: Antiviral CPE reduction assay, Zika virus mr766 in VeroE6 cells. Conditions: mean ± SD, no unit printed on the supplement page (Table 2 of the same screen is in µM). Format: cell-based.
The nature of data set [7]: in vitro. Conditions: human.
A short description of data set [8]: in vitro. Conditions: human. This is another data set of the same source.
Data set [9] can be described thus: in vitro. Conditions: dog.
Data set [10] in a line: in vitro. Conditions: human. This is another data set of the same source.
A short description of data set [11]: in vitro. Conditions: African green monkey.
The test system of data set [12] is HL-60 (acute myeloid leukemia). Briefly: MTS proliferation assay, HL-60. Conditions: read-out: Anti-Proliferative Activity (IC50) HL-60. Background: Tetrazolium dyes change colour on reduction, which living cells bring about.
Data set [13] has as its system K-562 (chronic myeloid leukemia). Nature of the data set: MTS proliferation assay, K-562. Conditions: read-out: Anti-Proliferative Activity (IC50) K-562.
The subject of data set [14] is Z-138 (non-Hodgkin lymphoma). Nature of the data set: MTS proliferation assay, Z-138. Conditions: read-out: Anti-Proliferative Activity (IC50) Z-138.
The next data set has as its system LN-229 (glioblastoma). Nature of the data set: MTS proliferation assay, LN-229. Conditions: read-out: Anti-Proliferative Activity (IC50) LN-229.
Data set [15] deals with DND-41 (acute lymphoblastic leukemia). Nature of the data set: MTS proliferation assay, DND-41. Conditions: read-out: Anti-Proliferative Activity (IC50) DND-41.
Data set [16] has as its system Capan-1 (pancreatic adenocarcinoma). Nature of the data set: MTS proliferation assay, Capan-1. Conditions: read-out: Anti-Proliferative Activity (IC50) Capan-1.
Data set [17] relates to HCT-116 (colorectal carcinoma). Nature of the data set: MTS proliferation assay, HCT-116. Conditions: read-out: Anti-Proliferative Activity (IC50) HCT-116.
Data set [18] deals with NCI-H460 (lung carcinoma). Nature of the data set: MTS proliferation assay, NCI-H460. Conditions: read-out: Anti-Proliferative Activity (IC50) NCI-H460.
Data set [19] concerns eight diverse human cancer cell lines. Nature of the data set: MTS proliferation assay, panel of eight human cancer cell lines (statements for the whole panel). Conditions: 72 h.
The test system is the same in data set [20].
[21] abbreviates: Human coronavirus 229E, HEL 299, MTS.
The mark [22] stands for this setting: Betacoronavirus 1, OC43, HEL 299, MTS.
Where [23] appears, read: Influenza A virus, H1N1, MDCK cells, CPE reduction, MTS, mean ± SD of two or three independent experiments.
Where [24] appears, read: Influenza A virus, H3N2, MDCK cells, CPE reduction, MTS, mean ± SD of two or three independent experiments.
[25] abbreviates: human respiratory syncytial virus, HEp-2, Hep2 cells, CPE reduction, MTS, mean ± SD of two or three independent experiments, read-out: Antiviral Activity (EC50) RSV A Long.
[26] abbreviates: Human alphaherpesvirus 1, HEL 299, MTS.
Setting [27] is: Yellow fever virus, Vero C1008, read-out: Antiviral activity (EC50) YFV 17D.
Setting [28] is: read-out: CC50 values (cytotoxic activity) in the cancer cell line panel.
Where [29] appears, read: MDCK cells, CPE reduction, MTS, mean ± SD of two or three independent experiments.
The mark [30] stands for this setting: 72 h, MTS, mean ± SD of two independent experiments.

For `C=CC(=O)Nc1cccc(Oc2nc(Nc3ccc(N4CCN(C)CC4)cc3OC)ncc2Cl)c1` [WZ4002, reference compound], the 50% effective concentration (EC50) in the data set with HCoV-229E (setting [21]) was 41.8 ± 9.8 µM; with HCoV-OC43 (setting [22]), over 100 µM; with HCoV-NL63 (Human coronavirus NL63, MTS) it was over 100 µM; in [1] (setting [23]), over 100 µM; in data set [2] (setting [24]) it was over 100 µM; in data set [3] (Influenza B virus, MDCK) it was over 100 µM. In addition, the EC50 in data set [4] (setting [25]) was over 100 µM; in data set [5] (setting [26]), over 100 µM; in data set [6] (setting [27]), over 100 µM; with Zika virus (ZikV mr766) (Zika virus, Vero C1008, MTS), over 100 µM. For the same compound, the CC50 (in the data set “in vitro [7]”; in the data set “in vitro [8]”; in the data set “in vitro [9]”; in “in vitro [10]”; in the data set “in vitro [11]”; in data set [19] (setting [28])) was over 100 µM each time. Moreover, the IC50 in [12] (Homo sapiens, HL-60, 72 h) was over 100 µM; in [13] (Homo sapiens, K562, 72 h), over 100 µM; in [14] (Homo sapiens, Z-138, 72 h), over 100 µM; in the data set on LN-229 (glioblastoma) (Homo sapiens, LN-229, 72 h), over 100 µM; in data set [15] (Homo sapiens, DND41, 72 h), over 100 µM; in [16] (Homo sapiens, CAPAN-1, 72 h) it was over 100 µM. Further, the IC50 in data set [17] (Homo sapiens, HCT-116, 72 h) is over 100 µM; in data set [18] (Homo sapiens, NCI-H460, 72 h) it was over 100 µM.

Turning to `C=CC(=O)Nc1cccc(Nc2nc(Nc3ccc(NC4CN(CCF)C4)cc3OC)ncc2C(F)(F)F)c1` [CNX-2006, reference compound], the EC50 was 1.8 ± 0.2 µM with HCoV-229E (MTS); 2.2 ± 0.8 µM in the data set with HCoV-OC43 (MTS); over 100 µM in the data set with HCoV-NL63 (MTS); over 100 µM in [1] (setting [29]); over 100 µM in [2] (setting [29]); over 100 µM in [3] (setting [29]). Further, the EC50 in data set [4] (Hep2 cells, CPE reduction, MTS, mean ± SD of two or three independent experiments, read-out: Antiviral Activity (EC50) RSV A Long) was over 100 µM; in [5] (MTS) it was over 100 µM; in [6] (VeroE6 cells, CPE reduction, MTS, mean ± SD, no unit printed on the supplement page (Table 2 of the same screen is in µM), read-out: Antiviral activity (EC50) YFV 17D), over 100 µM; with Zika virus (ZikV mr766) (MTS), over 100 µM. For the same compound, the CC50 was 11.1 ± 1 µM in the data set with HEL299 cells; 4.3 ± 1.8 µM in the data set on Hep3B cells; 1.7 ± 0.4 µM in the data set on MDCK cells; 11.7 ± 0.8 µM in the data set with Hep2 cells; 9.2 ± 1.1 µM with VeroE6 cells; under 10 µM in data set [20]. Also, the IC50 in data set [12] (setting [30]) came out at 3.8 ± 1.4 µM; in data set [13] (setting [30]), 11.5 ± 0.06 µM; in data set [14] (setting [30]), 2.6 ± 0.5 µM; in the data set with LN-229 (glioblastoma) (setting [30]), 8.2 ± 1.2 µM; in [15] (setting [30]), 4.5 ± 0.2 µM; in [16] (setting [30]) it was 1.7 ± 0.01 µM. Moreover, the results for the IC50 in data set [17] (setting [30]) and in [18] (setting [30]) were 6.6 ± 0.7 µM and 8.7 ± 1.9 µM, respectively.

In the case of `C#Cc1cccc(Nc2ncnc3cc4c(cc23)OCCOCCOCCO4)c1` [Icotinib, icotinib, reference compound], the EC50 in the data set on HCoV-229E (setting [21]) was over 100 µM; in the data set on HCoV-OC43 (setting [22]), over 100 µM; with HCoV-NL63 (Human coronavirus NL63, MTS), over 100 µM; in data set [1] (setting [23]) it was over 100 µM; in [2] (setting [24]), over 100 µM; in data set [3] (Influenza B virus, MDCK cells, CPE reduction, MTS, mean ± SD of two or three independent experiments), over 100 µM. The EC50 in data set [4] (setting [25]) is over 100 µM; in [5] (setting [26]) it was over 100 µM; in [6] (setting [27]), over 100 µM; in the data set on Zika virus (ZikV mr766) (Zika virus, Vero C1008, MTS), over 100 µM. Further, the CC50 (in the data set “in vitro [7]”; in “in vitro [8]”; in “in vitro [9]”; in “in vitro [10]”; in “in vitro [11]”; in data set [19] (setting [28])) was over 100 µM in each case. Besides, the IC50 in data set [12] (Homo sapiens, HL-60, 72 h) is over 100 µM; in data set [13] (Homo sapiens, K562, 72 h), over 100 µM; in data set [14] (Homo sapiens, Z-138, 72 h), over 100 µM; in the data set on LN-229 (glioblastoma) (Homo sapiens, LN-229, 72 h) it was over 100 µM; in data set [15] (Homo sapiens, DND41, 72 h), over 100 µM; in data set [16] (Homo sapiens, CAPAN-1, 72 h), over 100 µM. Moreover, the IC50 in data set [17] (Homo sapiens, HCT-116, 72 h) is over 100 µM; in data set [18] (Homo sapiens, NCI-H460, 72 h), over 100 µM.

Regarding `CC#CC(=O)Nc1ccc2ncnc(Nc3cccc(Br)c3)c2c1` [CL-387785, reference compound], the EC50 was 0.4 ± 0.2 µM in the data set with HCoV-229E (setting [21]); 1.8 ± 0.4 µM with HCoV-OC43 (setting [22]); over 100 µM in the data set with HCoV-NL63 (Human coronavirus NL63, MTS); over 100 µM in data set [1] (Influenza A virus, H1N1, MDCK); over 100 µM in data set [2] (Influenza A virus, H3N2, MDCK); 4.5 ± 1.2 µM in data set [3] (Influenza B virus, MDCK). In addition, the EC50 was over 100 µM in data set [4] (human respiratory syncytial virus, HEp-2, read-out: Antiviral Activity (EC50) RSV A Long); 1 µM in data set [5] (setting [26]); over 100 µM in [6] (setting [27]); over 100 µM with Zika virus (ZikV mr766) (Zika virus, Vero C1008, MTS). Further, the CC50 in “in vitro [9]” was 7.1 ± 0.4 µM; in “in vitro [11]”, over 100 µM; in [19] (read-out: CC50 values (anti-proliferative activity) against the majority of the tested cell lines), under 10 µM. The IC50 in data set [12] (Homo sapiens, HL-60, 72 h) turned out to be 1.9 ± 0.04 µM; in data set [13] (Homo sapiens, K562, 72 h), 65 ± 0.2 µM; in [14] (Homo sapiens, Z-138, 72 h) it was 0.2 ± 0.1 µM; in the data set on LN-229 (glioblastoma) (Homo sapiens, LN-229, 72 h) it was 43.8 ± 6.7 µM; in [15] (Homo sapiens, DND41, 72 h) it was 0.9 ± 0.2 µM; in data set [16] (Homo sapiens, CAPAN-1, 72 h), 0.1 ± 0.01 µM. Also, the IC50 in data set [17] (Homo sapiens, HCT-116, 72 h) is 1.3 ± 1.1 µM; in data set [18] (Homo sapiens, NCI-H460, 72 h) it was 2.8 ± 0.6 µM.

For the origin of these results see PMC11643962, “Exploring 4,7-Disubstituted Pyrimido[4,5-d]pyrimidines as Antiviral and Anticancer Agents” (Molecules, 2024).
